Earlier results, collected in EP4585059A1, “EFFERVESCENT POUCHED PRODUCT” (Nicoventures Trading Limited, priority 2024, dated 2025).

details: water / aqueous environment (e.g., saliva)

Row | solubility in water | Molecule
1 | insoluble in water | COC(=O)/C=C/C(C)=C\C=C\C(C)=C\C=C\C=C(C)\C=C\C=C(C)\C=C\C(=O)O [bixin, (2E,4E,6E,8E,10E,12E,14E,16Z,18E)-20-methoxy-4,8,13,17-tetramethyl-20-oxoicosa-2,4,6,8,10,12,14,16,18-nonaenoic acid]
2 | water-soluble | CC(/C=C/C=C(C)/C=C/C(=O)O)=C\C=C\C=C(C)\C=C\C=C(C)\C=C\C(=O)O (stereo in doubt) [norbixin, (2E,4E,6E,8E,10E,12E,14E,16E,18E)-4,8,13,17-tetramethylicosa-2,4,6,8,10,12,14,16,18-nonaenedioic acid]

Row | Molecule | solubility in water
3 | C=C(C)[C@@H]1CCC(C)=C[C@H]1c1c(O)cc(CCCCC)cc1O [CBD, cannabidiol] | insoluble

details: Values obtained from PubChem or calculated

Row | Molecule | log(P)*
4 | isopropyl benzoic acid | 3.5
5 | CC(C)[C@@H]1CC[C@@H](C)C[C@H]1OC(=O)CCC(=O)O [monomenthyl succinate] | 3
6 | ethyl benzoic acid | 2.9
